Results reported in patent US12077503B2, “Substituted cyclic amides and their use as herbicides” (FMC CORPORATION, priority 2015, dated 2024).

Columns and labels:
Format in all cases: in vivo
[1] = test system: barnyardgrass (Echinochloa crus-galli); assay: Test C flooded paddy test; details: Flood; for Plant response rating (scale of 0 to 100), Barnyardgrass: 0 is no effect, 100 is complete control
How it was run: (§1)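 Visual 0–100 injury rating versus controls (0 = no effect, 100 = complete control) at 13 to 15 d. 2-leaf-stage plants; pots flooded 3 cm over soil surface, test compound added to paddy water; greenhouse.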

[2] = test system: ducksalad (Heteranthera limosa); assay: Test C flooded paddy test; details: Flood; for Plant response rating (scale of 0 to 100), Ducksalad: 0 is no effect, 100 is complete control
How it was run: as §1

rice (Oryza sativa) = assay: Test C flooded paddy test; details: Flood; for Plant response rating (scale of 0 to 100), Rice: 0 is no effect, 100 is complete control
How it was run: as §1

[3] = test system: sedge, umbrella (small-flower umbrella sedge, Cyperus difformis); assay: Test C flooded paddy test; details: Flood; for Plant response rating (scale of 0 to 100), Sedge, Umbrella: 0 is no effect, 100 is complete control
How it was run: as §1

[4] = test system: Galium (catchweed bedstraw, Galium aparine); assay: Test D preemergence; details: scale 0 to 100
Source text: (§2) Seeds of plant species selected from bluegrass (annual bluegrass, Poa annua), blackgrass (Alopecurus myosuroides), canarygrass (littleseed canarygrass, Phalaris minor), chickweed (common chickweed, Stellaria media), Galium (catchweed bedstraw, Galium aparine), bromegrass, downy (downy bromegrass, Bromus tectorum), field poppy (Papaver rhoeas), field violet (Viola arvensis), foxtail, green (green foxtail, Setaria viridis), deadnettle (henbit deadnettle, Lamium amplexicaule), ryegrass, Italian (Italian ryegrass, Lolium multiflorum), Kochia (Kochia scoparia), lambsquarters (Chenopodium album), oilseed rape (Brassica napus), pigweed (Amaranthus retroflexus), chamomile (scentless chamomile, Matricaria inodora), Russian thistle (Salsola kali), speedwell (bird's-eye speedwell, Veronica persica), barley, spring (spring barley, Hordeum vulgare), wheat, spring (spring wheat, Triticum aestivum), buckwheat, wild (wild buckwheat, Polygonum convolvulus), mustard, wild (wild mustard, Sinapis arvensis), oat, wild (wild oat, Avena fatua), radish, wild (wild radish, Raphanus raphanistrum), windgrass (Apera spica-venti), barley, winter (winter barley Hordeum vulgare), and wheat, winter (winter wheat, Triticum aestivum) were planted into a silt loam soil and treated preemergence with test chemicals formulated in a non-phytotoxic solvent mixture which included a surfactant.
(§3) Treated plants and controls were maintained in a controlled growth environment approximately 21 d after which time all species were compared to controls and visually evaluated. Plant response ratings, summarized in Table D, are based on a scale of 0 to 100 where 0 is no effect and 100 is complete control. A dash (-) response means no test result.

[5] = test system: Russian thistle (Salsola kali); assay: Test D preemergence; details: scale 0 to 100
Source text: as §2, §3

[6] = test system: barley, spring (spring barley, Hordeum vulgare); assay: Test D preemergence; details: scale 0 to 100
Source text: as §2, §3

[7] = test system: bluegrass (annual bluegrass, Poa annua); assay: Test D preemergence; details: scale 0 to 100
Source text: as §2, §3

[8] = test system: bromegrass, downy (downy bromegrass, Bromus tectorum); assay: Test D preemergence; details: scale 0 to 100
Source text: as §2, §3

[9] = test system: canarygrass (littleseed canarygrass, Phalaris minor); assay: Test D preemergence; details: scale 0 to 100
Source text: as §2, §3

[10] = test system: chamomile (scentless chamomile, Matricaria inodora); assay: Test D preemergence; details: scale 0 to 100
Source text: as §2, §3

[11] = test system: chickweed (common chickweed, Stellaria media); assay: Test D preemergence; details: scale 0 to 100
Source text: as §2, §3

[12] = test system: field violet (Viola arvensis); assay: Test D preemergence; details: scale 0 to 100
Source text: as §2, §3

[13] = test system: lambsquarters (Chenopodium album); assay: Test D preemergence; details: scale 0 to 100
Source text: as §2, §3

[14] = test system: oat, wild (wild oat, Avena fatua); assay: Test D preemergence; details: scale 0 to 100
Source text: as §2, §3

[15] = test system: pigweed (Amaranthus retroflexus); assay: Test D preemergence; details: scale 0 to 100
Source text: as §2, §3

[16] = test system: ryegrass, Italian (Italian ryegrass, Lolium multiflorum); assay: Test D preemergence; details: scale 0 to 100
Source text: as §2, §3

[17] = test system: wheat, spring (spring wheat, Triticum aestivum); assay: Test D preemergence; details: scale 0 to 100
Source text: as §2, §3

[18] = test system: windgrass (Apera spica-venti); assay: Test D preemergence; details: scale 0 to 100
Source text: as §2, §3

[19] = 31 g ai/ha, scale 0 to 100 (0 no effect, 100 complete control), 13 to 15 d

SMILES: CN1CC(c2cccc(OC(F)F)c2)C(C(=O)Nc2ccccc2F)C1=O (stereo not drawn) [Compound 618]
- Plant response rating (scale of 0 to 100), Barnyardgrass ([1]; 31 g ai/ha): 35
- Plant response rating (scale of 0 to 100), Barnyardgrass ([1]; 62 g ai/ha): 50
- Plant response rating (scale of 0 to 100), Barnyardgrass ([1]; 125 g ai/ha): 75
- Plant response rating (scale of 0 to 100), Barnyardgrass ([1]; 250 g ai/ha): 80
- Plant response rating (scale of 0 to 100), Ducksalad ([2]; 31 g ai/ha): 60
- Plant response rating (scale of 0 to 100), Ducksalad ([2]; 62 g ai/ha): 60
- Plant response rating (scale of 0 to 100), Ducksalad ([2]; 125 g ai/ha): 95
- Plant response rating (scale of 0 to 100), Ducksalad ([2]; 250 g ai/ha): 100
- Plant response rating (scale of 0 to 100), Rice (rice (Oryza sativa); 31 g ai/ha): 0
- Plant response rating (scale of 0 to 100), Rice (rice (Oryza sativa); 62 g ai/ha): 0
- Plant response rating (scale of 0 to 100), Rice (rice (Oryza sativa); 125 g ai/ha): 15
- Plant response rating (scale of 0 to 100), Rice (rice (Oryza sativa); 250 g ai/ha): 15
- Plant response rating (scale of 0 to 100), Sedge, Umbrella ([3]; 31 g ai/ha): 0
- Plant response rating (scale of 0 to 100), Sedge, Umbrella ([3]; 62 g ai/ha): 0
- Plant response rating (scale of 0 to 100), Sedge, Umbrella ([3]; 125 g ai/ha): 0
- Plant response rating (scale of 0 to 100), Sedge, Umbrella ([3]; 250 g ai/ha): 0

SMILES: CN1CC(c2cccc(C(F)(F)F)c2)C(C(=O)Nc2cccc(F)c2F)C1=O (stereo not drawn) [Compound 636]
- Plant response rating: Galium ([4]; 31 g ai/ha): 0
- Plant response rating: Galium ([4]; 62 g ai/ha): 15
- Plant response rating: Galium ([4]; 125 g ai/ha): 30
- Plant response rating: Galium ([4]; 250 g ai/ha): 60
- Plant response rating: Russian Thistle ([5]; 31 g ai/ha): 0
- Plant response rating: Russian Thistle ([5]; 62 g ai/ha): 40
- Plant response rating: Russian Thistle ([5]; 125 g ai/ha): 50
- Plant response rating: Russian Thistle ([5]; 250 g ai/ha): 60
- Plant response rating: Barley, Spring ([6]; 31 g ai/ha): 35
- Plant response rating: Barley, Spring ([6]; 62 g ai/ha): 55
- Plant response rating: Barley, Spring ([6]; 125 g ai/ha): 60
- Plant response rating: Barley, Spring ([6]; 250 g ai/ha): 75
- Plant response rating: Bluegrass ([7]; 31 g ai/ha): 35
- Plant response rating: Bluegrass ([7]; 62 g ai/ha): 95
- Plant response rating: Bluegrass ([7]; 125 g ai/ha): 90
- Plant response rating: Bluegrass ([7]; 250 g ai/ha): 100
- Plant response rating: Bromegrass, Downy ([8]; 31 g ai/ha): 10
- Plant response rating: Bromegrass, Downy ([8]; 62 g ai/ha): 20
- Plant response rating: Bromegrass, Downy ([8]; 125 g ai/ha): 55
- Plant response rating: Bromegrass, Downy ([8]; 250 g ai/ha): 80
- Plant response rating: Canarygrass ([9]; 31 g ai/ha): 65
- Plant response rating: Canarygrass ([9]; 62 g ai/ha): 85
- Plant response rating: Canarygrass ([9]; 125 g ai/ha): 90
- Plant response rating: Canarygrass ([9]; 250 g ai/ha): 95
- Plant response rating: Chamomile ([10]; 31 g ai/ha): 90
- Plant response rating: Chamomile ([10]; 62 g ai/ha): 100
- Plant response rating: Chamomile ([10]; 125 g ai/ha): 100
- Plant response rating: Chamomile ([10]; 250 g ai/ha): 100
- Plant response rating: Chickweed ([11]; 31 g ai/ha): 85
- Plant response rating: Chickweed ([11]; 62 g ai/ha): 85
- Plant response rating: Chickweed ([11]; 125 g ai/ha): 90
- Plant response rating: Chickweed ([11]; 250 g ai/ha): 90
- Plant response rating: Field Violet ([12]; 31 g ai/ha): 0
- Plant response rating: Field Violet ([12]; 62 g ai/ha): 0
- Plant response rating: Field Violet ([12]; 125 g ai/ha): 35
- Plant response rating: Field Violet ([12]; 250 g ai/ha): 85
- Plant response rating: Lambsquarters ([13]; 31 g ai/ha): 35
- Plant response rating: Lambsquarters ([13]; 62 g ai/ha): 70
- Plant response rating: Lambsquarters ([13]; 125 g ai/ha): 80
- Plant response rating: Lambsquarters ([13]; 250 g ai/ha): 90
- Plant response rating: Oat, Wild ([14]; 31 g ai/ha): 5
- Plant response rating: Oat, Wild ([14]; 62 g ai/ha): 30
- Plant response rating: Oat, Wild ([14]; 125 g ai/ha): 80
- Plant response rating: Oat, Wild ([14]; 250 g ai/ha): 85
- Plant response rating: Pigweed ([15]; 31 g ai/ha): 0
- Plant response rating: Pigweed ([15]; 62 g ai/ha): 10
- Plant response rating: Pigweed ([15]; 125 g ai/ha): 50
- Plant response rating: Pigweed ([15]; 250 g ai/ha): 85
- Plant response rating: Ryegrass, Italian ([16]; 31 g ai/ha): 15
- Plant response rating: Ryegrass, Italian ([16]; 62 g ai/ha): 40
- Plant response rating: Ryegrass, Italian ([16]; 125 g ai/ha): 65
- Plant response rating: Ryegrass, Italian ([16]; 250 g ai/ha): 80
- Plant response rating: Wheat, Spring ([17]; 31 g ai/ha): 20
- Plant response rating: Wheat, Spring ([17]; 62 g ai/ha): 40
- Plant response rating: Wheat, Spring ([17]; 125 g ai/ha): 45
- Plant response rating: Wheat, Spring ([17]; 250 g ai/ha): 80
- Plant response rating: Windgrass ([18]; 31 g ai/ha): 85
- Plant response rating: Windgrass ([18]; 62 g ai/ha): 95
- Plant response rating: Windgrass ([18]; 125 g ai/ha): 95
- Plant response rating: Windgrass ([18]; 250 g ai/ha): 98

SMILES: O=C1NCC(c2cccc(OC(F)(F)C(F)F)c2)C1C(=O)Nc1ccccc1F (racemic) [Compound 695]
- Plant response rating, Barnyardgrass [1, 19]: 20
- Plant response rating (scale of 0 to 100), Barnyardgrass ([1]; 62 g ai/ha): 60
- Plant response rating (scale of 0 to 100), Barnyardgrass ([1]; 125 g ai/ha): 65
- Plant response rating (scale of 0 to 100), Barnyardgrass ([1]; 250 g ai/ha): 70
- Plant response rating, Ducksalad [2, 19]: 30
- Plant response rating (scale of 0 to 100), Ducksalad ([2]; 62 g ai/ha): 50
- Plant response rating (scale of 0 to 100), Ducksalad ([2]; 125 g ai/ha): 80
- Plant response rating (scale of 0 to 100), Ducksalad ([2]; 250 g ai/ha): 100
- Plant response rating, Rice (rice (Oryza sativa); [19]): 0
- Plant response rating (scale of 0 to 100), Rice (rice (Oryza sativa); 62 g ai/ha): 0
- Plant response rating (scale of 0 to 100), Rice (rice (Oryza sativa); 125 g ai/ha): 15
- Plant response rating (scale of 0 to 100), Rice (rice (Oryza sativa); 250 g ai/ha): 15
- Plant response rating, Sedge, Umbrella [3, 19]: 0
- Plant response rating (scale of 0 to 100), Sedge, Umbrella ([3]; 62 g ai/ha): 0
- Plant response rating (scale of 0 to 100), Sedge, Umbrella ([3]; 125 g ai/ha): 0
- Plant response rating (scale of 0 to 100), Sedge, Umbrella ([3]; 250 g ai/ha): 0

SMILES: CN1CC(c2ccc(F)c(C(F)(F)F)c2)C(C(=O)Nc2cccc(F)c2F)C1=O (stereo not drawn) [Compound 613]
- Plant response rating (scale of 0 to 100), Barnyardgrass ([1]; 31 g ai/ha): 0
- Plant response rating (scale of 0 to 100), Barnyardgrass ([1]; 62 g ai/ha): 30
- Plant response rating (scale of 0 to 100), Barnyardgrass ([1]; 125 g ai/ha): 50
- Plant response rating (scale of 0 to 100), Barnyardgrass ([1]; 250 g ai/ha): 60
- Plant response rating (scale of 0 to 100), Ducksalad ([2]; 31 g ai/ha): 0
- Plant response rating (scale of 0 to 100), Ducksalad ([2]; 62 g ai/ha): 60
- Plant response rating (scale of 0 to 100), Ducksalad ([2]; 125 g ai/ha): 75
- Plant response rating (scale of 0 to 100), Ducksalad ([2]; 250 g ai/ha): 100
- Plant response rating (scale of 0 to 100), Rice (rice (Oryza sativa); 31 g ai/ha): 0
- Plant response rating (scale of 0 to 100), Rice (rice (Oryza sativa); 62 g ai/ha): 0
- Plant response rating (scale of 0 to 100), Rice (rice (Oryza sativa); 125 g ai/ha): 10
- Plant response rating (scale of 0 to 100), Rice (rice (Oryza sativa); 250 g ai/ha): 20
- Plant response rating (scale of 0 to 100), Sedge, Umbrella ([3]; 31 g ai/ha): 0
- Plant response rating (scale of 0 to 100), Sedge, Umbrella ([3]; 62 g ai/ha): 0
- Plant response rating (scale of 0 to 100), Sedge, Umbrella ([3]; 125 g ai/ha): 0
- Plant response rating (scale of 0 to 100), Sedge, Umbrella ([3]; 250 g ai/ha): 0
